Values joined by “and” are separate entries in the source; they are usually repeats but may differ in a detail not shown here. Equal values may be shown once.
Tests used:
[1] = test system: PSMA-positive metastatic castration-resistant prostate cancer (mCRPC); experiment: PSMAfore phase III: radiographic progression-free survival (rPFS) by blinded independent central review per PCWG3; type: in vivo, human
Protocol: Radiographic progression-free survival (rPFS) based on independent central review as per PCWG3 criteria is the primary endpoint and overall survival (OS) is the key secondary endpoint for the study. The statistical design of the study is such that, to be declared positive, the study would be required to reach statistical significance on the primary analysis of rPFS.
The primary analysis of rPFS and the first interim analysis of OS were performed using all patients randomized on or before the data cutoff date of 2 Oct. 2022 using a one-sided alpha level of 2.5%. One randomized and treated patient was excluded from Full Analysis Set due to informed consent not obtained per due process (INCL1A PD).

[2] = test system: metastatic castration-resistant prostate cancer; conditions: cited from earlier work
[3] = test system: PSMA-positive mCRPC participants; experiment: PSMAfore phase III: patient disposition, treatment discontinuation; type: in vivo, human
Text: Patient disposition (Full analysis set)

[4] = test system: PSMA-positive metastatic castration-resistant prostate cancer (mCRPC); experiment: PSMAfore phase III: radiographic progression-free survival (rPFS) by blinded independent central review per PCWG3; type: in vivo, human; remark: listed apart in the source
[5] = excretory mechanisms, kidneys (Kratochwil et al 2016); cited from earlier work
mCRPC participants = conditions: cited from earlier work
[6] = test system: PSMA-positive metastatic castration-resistant prostate cancer (mCRPC); experiment: PSMAfore phase III: best overall radiological response (soft tissue and bone) by BICR; type: in vivo, human; conditions: results update
Protocol: Best overall radiological response accounting for soft tissue and bone disease based on BICR (Recist analysis set—participants with measurable disease at baseline)
Responses are based on soft tissue assessment and bone lesion progression. Best overall responses of CR and PR were confirmed by repeat assessments that were performed not less than 4 weeks after the criteria for response were first met.
CR may include participants with residual but non-progressive bone disease.

[7] = test system: PSMA-positive metastatic castration-resistant prostate cancer; conditions: cited from earlier work
[8] = test system: docetaxel progressing metastatic castration-resistant prostate cancer; conditions: randomized, 200 patients; P<0.0001; cited from earlier work
[9] = test system: PSMA-positive metastatic castration-resistant prostate cancer (mCRPC); experiment: PSMAfore phase III: overall survival (OS), interim analysis; type: in vivo, human; conditions: first interim analysis DCO 2 Oct 2022
Protocol: After radiographic progression, follow up for survival will continue.
OS is hierarchically tested based on a three-look group sequential design using a Lan DeMets (O'Brien Flemming) alpha spending function. The final OS analysis was not planned to be performed at the time of the interim rPFS analysis, which is reported in this FIR.
Following the hierarchical testing strategy defined in the study protocol, OS was tested once rPFS was statistically significant. The one-sided alpha level (<0.000000001012) required for a significant OS difference in this first interim analysis was calculated from the pre-specified alpha spending function and the number of events observed at the time of rPFS analysis.
Results in terms of the OS at the time of the first interim OS analysis are based on 13.5% (40/297 deaths).
The second interim analysis for OS is planned after additional follow up when approximately 75% (223/297) of the targeted number of deaths/events have occurred. If OS is not statistically significant at the second interim analysis, a final analysis is planned when approximately 297 deaths have been recorded.

[10] = test system: PSMA-positive metastatic castration-resistant prostate cancer; conditions: cited from earlier work; remark: listed apart in the source
[11] = DCO 2 Oct 2022, full analysis set
[12] = primary analysis DCO 2 Oct 2022, most recent central vendor data (results update)
[13] = DCO 21 Jun 2023, full analysis set
[14] = Recist analysis set, measurable disease at baseline, BICR

O=C([O-])CN1CCN(CC(=O)[O-])CCN(CC(=O)NCC2CCC(C(=O)N[C@@H](Cc3ccc4ccccc4c3)C(=O)NCCCC[C@H](NC(=O)N[C@@H](CCC(=O)O)C(=O)O)C(=O)O)CC2)CCN(CC(=O)[O-])CC1.[177Lu+3] (some centres unmarked) [[177Lu]Lu-PSMA-617, lutetium (177Lu) vipivotide tetraxetan]
rPFS events: Death without radiographic progression [1, 11]: 6 (2.6) n(%) | rPFS events: Radiographic progression [1, 11]: 55 (23.6) n(%) | rPFS: Number of events [1, 11]: 61 (26.2%) n(%) and 61 (26.2) n(%) | risk reduction (rPFS) compared to ARDT arm [1, 11]: 58% | rPFS 75th percentile (95% CI) ([1]; DCO 2 Oct 2022, full analysis set, Kaplan-Meier): NE [11.96, NE] | estimated rPFS probability (95% CI) at 6 months [1, 12]: 69.0% | rPFS: Number of events [1, 12]: 60 (25.8%) n (%) | objective response rate in measurable disease by RECIST (CR and PR) ([2]; 27 participants with measurable disease): 56% | median overall survival ([2]; 95% CI 10.5-18.0): 13.3 months | participants with reduction of PSA of 80% or more ([2]; up to 4 cycles of 4-8 GBq every 6 weeks): 44% | participants with PSA response (reduction in PSA of at least 50%) ([2]; up to 4 cycles of 4-8 GBq every 6 weeks, post-taxane, post abiraterone/enzalutamide): 64% | treatment discontinuation due to adverse event ([3]; DCO 2 Oct 2022): 3.9% | Reason for discontinuation: Adverse event [3, 11]: 9 (3.9) n (%) | treatment discontinuation due to adverse event ([3]; DCO 21 Jun 2023): 5.6% | rPFS events: Death without radiographic progression [4, 13]: 10 (4.3) n(%) | rPFS events: Radiographic progression [4, 13]: 105 (44.9) n(%) | rPFS: Number of events [4, 13]: 115 (49.1%) n(%) and 115 (49.1) n(%) | risk reduction (rPFS) compared to ARDT arm ([4]; updated exploratory analysis DCO 21 Jun 2023): 57% | injected dose cleared within 48 hours [5]: approximately 50% | Grade 3/4 nephrotoxicity (mCRPC participants; literature): no reports of Grade 3/4 nephrotoxicity | rate of xerostomia in treated participants (mCRPC participants; prospective study, low grade): approximately 87% | Best overall response: Complete response (CR) [6, 14]: 15 (21.1) n (%) | Best overall response: Partial response (PR) [6, 14]: 20 (28.2) n (%) | Best overall response: Progressive disease (PD) [6, 14]: 14 (19.7) n (%) | Best overall response: Unknown (UNK) [6, 14]: 2 (2.8) n (%) | Disease Control Rate (DCR: CR + PR + SD) [6, 14]: 55 (77.5) n (%) | Overall Response Rate (ORR: CR + PR) [6, 14]: 35 (49.3) n (%) | rDCR compared to ARDT [6]: a higher rDCR compared to ARDT | rORR compared to ARDT [6]: at least three times higher rORR compared to ARDT | TEAE anemia ([7]; VISION): 31.8% | TEAE arthralgia ([7]; VISION): 22.3% | TEAE back pain ([7]; VISION): 23.4% | TEAE constipation ([7]; VISION): 20.2% | TEAE decreased appetite ([7]; VISION): 21.2% | TEAE diarrhea ([7]; VISION): 18.9% | TEAE dry mouth ([7]; VISION): 38.8% | TEAE fatigue ([7]; VISION): 43.1% | TEAE leukopenia ([7]; VISION): 12.5% | TEAE lymphopenia ([7]; VISION): 14.2% | TEAE nausea ([7]; VISION): 35.3% | TEAE thrombocytopenia ([7]; VISION): 17.2% | TEAE vomiting ([7]; VISION): 18.9% | patients reporting treatment-emergent adverse events (TEAEs) ([7]; as of 27 Jan 2021, 519 patients): 98.1% | incidence of adverse events of grade 3 or above ([7]; as of 27 Jan 2021): 52.7% | proportion of patients with PSA decline >=50% [8]: 66% | median OS (95% CI) ([9]; Kaplan-Meier): NE [12.16, NE] | OS: Number of events ([9]; full analysis set): 20 (8.6) n(%) | complete response ([10]; RECIST 1.1 measurable target lesions, 17 of 184 patients): 9.2% | partial response ([10]; RECIST 1.1 measurable target lesions, 77 patients): 41.8% | median imaging-based progression-free survival ([10]; plus standard care, vs 3.4 months standard care): 8.7 months | median overall survival ([10]; plus standard care, vs 11.3 months standard care): 15.3 months | hazard ratio for death ([10]; vs standard care, 95% CI 0.52 to 0.74): 0.62 | hazard ratio for progression or death ([10]; vs standard care, 99.2% CI 0.29 to 0.57): 0.40
